The results in this text go back to patent publication US10004701B2, “Methods and compositions for treating infection” (UNIVERSITY OF ROCHESTER, priority 2012, dated 2018).

Like-named read-outs stand apart in the source and are kept apart here.

Experiment in all cases: AK assay 384-well format, Prestwick library screening
In one test the test system is E. cloacae. Format: cell-based, Enterobacter cloacae. The note with it: 50 μM final drug concentration; for fold induction at 50 µM: Enterobacter cloacae, 3 h.
In a further test the test system is E. faecium. Type of test: cell-based, Enterococcus faecium. The note with it: 50 μM final drug concentration; for fold induction at 50 µM: Enterococcus faecium, 3 h.
For test [1], the system named is S. aureus strain USA300-0114. Type of test: cell-based, Staphylococcus aureus. The note with it: 50 μM final drug concentration; for fold induction at 50 µM: Staphylococcus aureus, USA300, 3 h.
Test [2] deals with A. baumannii strain 98-37-09. Type of test: cell-based, Acinetobacter baumannii. The note with it: 50 μM final drug concentration; for fold induction at 50 µM: Acinetobacter baumannii, 983709, 3 h.
The next test relates to K. pneumoniae. Format: cell-based, Klebsiella pneumoniae. The note with it: 50 μM final drug concentration; for fold induction at 50 µM: Klebsiella pneumoniae, 3 h.
Another test has as its system E. coli. Format: cell-based, Escherichia coli. The note with it: 50 μM final drug concentration; for fold induction at 50 µM: Escherichia coli, 3 h.
The next test deals with P. aeruginosa. Type of test: cell-based, Pseudomonas aeruginosa. The note with it: 50 μM final drug concentration; for fold induction at 50 µM: Pseudomonas aeruginosa, 3 h.

`C[N+]1(CCCCC[N+]2(C)CCCC2)CCCC1.O=C([O-])C(O)C(O)C(=O)O.O=C([O-])C(O)C(O)C(=O)O` [Pentolinium bitartrate]: the “AK-based Prestwick Library Screening Results, E. cloacae (increase in extracellular AK activity)” value in the test with E. cloacae (384-well format, […]) was determined as 1.1. Further, the “AK-based Prestwick Library Screening Results, E. faecium (increase in extracellular AK activity)” value in the test on E. faecium (384-well format, […]) is reported as 0.9. The “AK-based Prestwick Library Screening Results, S. aureus (increase in extracellular AK activity)” value in test [1] (384-well format, […]) is 0.7. The “AK-based Prestwick Library Screening Results, A. baumannii (increase in extracellular AK activity)” value in test [2] (384-well format, […]) came to 1.0. The “AK-based Prestwick Library Screening Results, K. pneumoniae (increase in extracellular AK activity)” value with K. pneumoniae (384-well format, […]) is listed as 0.7. Moreover, the “AK-based Prestwick Library Screening Results, E. coli (increase in extracellular AK activity)” value in the test on E. coli (384-well format, […]) is listed as 0.8. Besides, the “AK-based Prestwick Library Screening Results, P. aeruginosa (increase in extracellular AK activity)” value in the test on P. aeruginosa (384-well format, […]) is given as 1.0.
On to `C[C@@H]1C[C@H]2[C@@H]3CCC4=CC(=O)C=C[C@]4(C)[C@@]3(Cl)[C@@H](O)C[C@]2(C)[C@@]1(OC(=O)c1ccco1)C(=O)CCl` [Mometasone furoate], for which the fold induction at 50 µM amounted to 0.9 in the test with E. cloacae (planktonic E. cloacae, cutoff for positive-scoring molecules 3-fold increase, read-out: AK-based Prestwick Library Screening Results, E. cloacae (increase in extracellular AK activity)); 1 in the test on E. faecium (planktonic E. faecium, cutoff for positive-scoring molecules 3-fold increase, read-out: AK-based Prestwick Library Screening Results, E. faecium (increase in extracellular AK activity)); 0.4 in test [1] (planktonic S. aureus, cutoff for positive-scoring molecules 3-fold increase, read-out: AK-based Prestwick Library Screening Results, S. aureus (increase in extracellular AK activity)); 0.9 in test [2] (planktonic A. baumannii, cutoff for positive-scoring molecules 3-fold increase, read-out: AK-based Prestwick Library Screening Results, A. baumannii (increase in extracellular AK activity)); 0.7 in the test on K. pneumoniae (planktonic K. pneumoniae, cutoff for positive-scoring molecules 3-fold increase, read-out: AK-based Prestwick Library Screening Results, K. pneumoniae (increase in extracellular AK activity)); 0.9 with E. coli (planktonic E. coli, cutoff for positive-scoring molecules 3-fold increase, read-out: AK-based Prestwick Library Screening Results, E. coli (increase in extracellular AK activity)). For the same compound, the fold induction at 50 µM in the test with P. aeruginosa (planktonic P. aeruginosa, cutoff for positive-scoring molecules 3-fold increase, read-out: AK-based Prestwick Library Screening Results, P. aeruginosa (increase in extracellular AK activity)) was found to be 0.6.
As to `NS(=O)(=O)c1cc2c(cc1Cl)NC(CC1CCCC1)NS2(=O)=O` (stereo not drawn) [Cyclopenthiazide], the fold induction at 50 µM came out at 1.2 in the test on E. cloacae (planktonic E. cloacae, positive cutoff 3-fold increase, read-out: AK-based Prestwick library screening result, E. cloacae (fold increase in extracellular AK activity)); 0.9 in the test on E. faecium (planktonic E. faecium, positive cutoff 3-fold increase, read-out: AK-based Prestwick library screening result, E. faecium (fold increase in extracellular AK activity)); 0.7 in test [1] (planktonic S. aureus, positive cutoff 3-fold increase, read-out: AK-based Prestwick library screening result, S. aureus (fold increase in extracellular AK activity)); 0.8 in test [2] (planktonic A. baumannii, positive cutoff 3-fold increase, read-out: AK-based Prestwick library screening result, A. baumannii (fold increase in extracellular AK activity)); 0.8 with K. pneumoniae (planktonic K. pneumoniae, positive cutoff 3-fold increase, read-out: AK-based Prestwick library screening result, K. pneumoniae (fold increase in extracellular AK activity)); 0.8 in the test on E. coli (planktonic E. coli, positive cutoff 3-fold increase, read-out: AK-based Prestwick library screening result, E. coli (fold increase in extracellular AK activity)). Further, the fold induction at 50 µM with P. aeruginosa (planktonic P. aeruginosa, positive cutoff 3-fold increase, read-out: AK-based Prestwick library screening result, P. aeruginosa (fold increase in extracellular AK activity)) amounted to 0.8.
Regarding `COc1ccc2[nH]c3c(c2c1)CCN=C3C` [Methoxy-6-harmalan], in the test on E. cloacae (planktonic, […]), the “AK-based Prestwick Library Screening Results, E. cloacae (fold increase in extracellular AK activity)” value turned out to be 1.4. Further, the “AK-based Prestwick Library Screening Results, E. faecium (fold increase in extracellular AK activity)” value with E. faecium (planktonic, […]) amounted to 1.0. Besides, in test [1] (planktonic, […]), the “AK-based Prestwick Library Screening Results, S. aureus (fold increase in extracellular AK activity)” value was determined as 0.8. Also, the “AK-based Prestwick Library Screening Results, A. baumannii (fold increase in extracellular AK activity)” value in test [2] (planktonic, […]) was determined as 1.3. Also, the “AK-based Prestwick Library Screening Results, K. pneumoniae (fold increase in extracellular AK activity)” value in the test with K. pneumoniae (planktonic, […]) stood at 1.0. Also, the “AK-based Prestwick Library Screening Results, E. coli (fold increase in extracellular AK activity)” value in the test on E. coli (planktonic, […]) came to 1.4. In addition, the “AK-based Prestwick Library Screening Results, P. aeruginosa (fold increase in extracellular AK activity)” value in the test on P. aeruginosa (planktonic, […]) came to 1.2.
For the compound `CC(=O)N[C@@H](CC(C)C)C(=O)O` [N-Acetyl-L-leucine], the fold induction at 50 µM in the test with E. cloacae (planktonic, cutoff for positive-scoring molecules 3-fold increase, read-out: AK-based Prestwick Library Screening Results, E. cloacae (fold increase in extracellular AK activity)) was 0.9; in the test with E. faecium (planktonic, cutoff for positive-scoring molecules 3-fold increase, read-out: AK-based Prestwick Library Screening Results, E. faecium (fold increase in extracellular AK activity)), 0.9; in test [1] (planktonic, cutoff for positive-scoring molecules 3-fold increase, read-out: AK-based Prestwick Library Screening Results, S. aureus (fold increase in extracellular AK activity)), 0.7; in test [2] (planktonic, cutoff for positive-scoring molecules 3-fold increase, read-out: AK-based Prestwick Library Screening Results, A. baumannii (fold increase in extracellular AK activity)), 0.7; in the test on K. pneumoniae (planktonic, cutoff for positive-scoring molecules 3-fold increase, read-out: AK-based Prestwick Library Screening Results, K. pneumoniae (fold increase in extracellular AK activity)) it was 0.6; with E. coli (planktonic, cutoff for positive-scoring molecules 3-fold increase, read-out: AK-based Prestwick Library Screening Results, E. coli (fold increase in extracellular AK activity)), 0.7. Besides, in the test on P. aeruginosa (planktonic, cutoff for positive-scoring molecules 3-fold increase, read-out: AK-based Prestwick Library Screening Results, P. aeruginosa (fold increase in extracellular AK activity)), the fold induction at 50 µM came out at 0.7.
As to `C[C@@H]1[C@H](O)[C@@H](C)/C=C/C=C/CC/C=C/C=C/C=C/C=C/C(O[C@H]2O[C@H](C)[C@@H](O)[C@H](N)[C@@H]2O)CC2O[C@](O)(CC(O)C(O)CCC(O)CC(O)CC(O)CC(=O)O[C@H]1C)CC(O)C2C(=O)O` (stereo partly drawn) [Nystatine], the “AK-based Prestwick Library Screening Results, E. cloacae (increase in extracellular AK activity)” value in the test on E. cloacae (planktonic E. cloacae, […]) is reported as 1.4. Also, the “AK-based Prestwick Library Screening Results, E. faecium (increase in extracellular AK activity)” value in the test with E. faecium (planktonic E. faecium, […]) was found to be 0.8. For the same compound, the “AK-based Prestwick Library Screening Results, S. aureus (increase in extracellular AK activity)” value in test [1] (planktonic S. aureus, […]) was found to be 0.7. Also, the “AK-based Prestwick Library Screening Results, A. baumannii (increase in extracellular AK activity)” value in test [2] (planktonic A. baumannii, […]) is on record as 0.9. Moreover, the “AK-based Prestwick Library Screening Results, K. pneumoniae (increase in extracellular AK activity)” value in the test on K. pneumoniae (planktonic K. pneumoniae, […]) came out at 0.8. In addition, the “AK-based Prestwick Library Screening Results, E. coli (increase in extracellular AK activity)” value with E. coli (planktonic E. coli, […]) was found to be 1.0. Also, the “AK-based Prestwick Library Screening Results, P. aeruginosa (increase in extracellular AK activity)” value in the test with P. aeruginosa (planktonic P. aeruginosa, […]) worked out at 0.8.
